The record followed here is patent US20130096021A1, “RECURRENT GENE FUSIONS IN BREAST CANCER” (priority 2011, published 2013).

For data set [1], the system named is HCC1599 xenograft.
Procedure: Four week-old female SCID C.B17 mice were procured from a breeding colony at University of Michigan. […] Mice were anesthetized using a cocktail of xylazine (80 mg/kg IP) and ketamine (10 mg/kg IP) for chemical restraint. MAST2 shRNA or scrambled shRNA knockdown MDA-MB-468 breast cancer cells (4 million) or NOTCH1 fusion allele positive HCC1599 breast cancer cell line (5 million) were resuspended in 100 ul of 1×PBA with 20% Matrigel (BD Biosciences) and implanted into right and left abdominal-inguinal mammary fat. Ten mice were included in each group. Two weeks after tumor implantation, HCC1599 xenograted mice were treated with γ-secretase inhibitor (DAPT) dissolved in 5% ethanol in corn oil (IP). Mice in control group also received 5% ethanol in corn oil as vehicle control. Tumor growth was recorded weekly by using digital calipers and tumor volumes were calculated using the formula (R/6) (L×W2), where L=length of tumor and W=width.
This was tested further by establishing a xenograft tumor model of HCC1599 in immunodeficient mice.
The test system of data set [2] is Notch target genes CCND1, MYC, and HEY1. As to the kind of experiment: Expression of Notch target genes after DAPT treatment. The following applies: 24-hour time course, cell lines with γ-secretase dependent Notch fusions. It is filed as cell-based, human.
Data set [3] deals with γ-secretase-cleaved NOTCH1 (NICD). The experiment in a line: Western blot of NICD levels after DAPT treatment. It is filed as cell-based, human. As to the method: For MAST2 fusion protein detection, cell pellets were sonicated in NP40 lysis buffer (50 mM Tris-HCl, 1% NP40, pH 7.4, Sigma), complete protease inhibitor mixture (Roche) and phosphatase inhibitor (EMD bioscience) Immunoblot analysis for MAST2 was carried out using MAST2 antibody from Novus Biologicals. Human β-actin antibody (Sigma) was used as a loading control. For NOTCH1 protein detection, cells were lysed in RIPA buffer containing protease inhibitor cocktail (Pierce). Proteins were separated by SDS-PAGE, transferred to nitrocellulose membranes and probed with antibodies recognizing total NOTCH1 (Cell Signaling), γ-secretase-cleaved NOTCH1 (NICD, Cell Signaling), or beta-actin (Santa Cruz). The signal was detected by chemiluminescence using Immun-Star Western C reagents (Bio-Rad).
Notch fusion alleles provide a target for therapeutic intervention. The three characterized Notch fusions represent two functional classes. […] Each of the three cell lines was treated with the γ-secretase inhibitor DAPT 31, and luciferase activity was measured in cell lysates 24 hours later. […] A panel of six breast cell lines were treated with DAPT at 0, 0.3, 1, and 3 μM, and cell proliferation was measured using a WST-1 assay over a six day time course.

Data set [4] deals with HCC1599 cells. As to the kind of experiment: WST-1 cell proliferation assay with DAPT. Format: cell-based, human. The following applies: DAPT 0.3, 1, and 3 μM, six day time course. The method, then: (§1) For cell proliferation assays, cells were seeded into 96-well plates in triplicate and allowed to attach overnight before drug treatment. The γ-secretase inhibitor DAPT (EMD Biosciences) was added to the cultures the next day at concentrations of 0, 0.3, 1, and 3 μM. Relative cell numbers were measured by WST-1 assays at indicated time points following the manufacturer's instructions (Roche).
(§2) Notch fusion alleles provide a target for therapeutic intervention. The three characterized Notch fusions represent two functional classes. The first class, exemplified by the HCC2218 and HCC1599 fusions, produces a protein similar to that produced by the ADAM17/TACE catalyzed S2 cleavage, which occurs during ligand activation of the Notch pathway. The second class, exemplified by the HCC1187 fusion, produces a protein similar to the NICD produced after cleavage at S3 by γ-secretase. The first class requires cleavage at S3 site by γ-secretase to release NICD, and thus would be expected to be sensitive to γ-secretase inhibitors (GSIs). The second class would be unaffected by GSIs, as the fusion generates an ORF similar to NICD. To test this, stable Notch reporter cell lines were established from each of the three Notch fusion positive carcinoma lines by infection with a lentivirus carrying the Notch responsive promoter driving firefly luciferase. Each of the three cell lines was treated with the γ-secretase inhibitor DAPT 31, and luciferase activity was measured in cell lysates 24 hours later. […] A panel of six breast cell lines were treated with DAPT at 0, 0.3, 1, and 3 μM, and cell proliferation was measured using a WST-1 assay over a six day time course.

Data set [5] concerns HCC1187 cells. As to the kind of experiment: WST-1 cell proliferation assay with DAPT. It is filed as cell-based, human. Conditions: DAPT 0.3, 1, and 3 μM, six day time course. As to the method: as §1, §2
For orientation: Tetrazolium assays rely on reduction of a dye to a coloured formazan, in cell work by metabolically active cells.

Data set [6] has as its system HCC2218 cells. As to the kind of experiment: WST-1 cell proliferation assay with DAPT. It is filed as cell-based, human. Conditions: DAPT 0.3, 1, and 3 μM, six day time course. The method, then:
as §1, §2

Data set [7] deals with other breast cell lines not expressing Notch fusion alleles. The experiment in a line: WST-1 cell proliferation assay with DAPT. Format: cell-based, human. The following applies: DAPT 0.3, 1, and 3 μM, six day time course. As to the method:
as §1, §2

Data set [8] concerns Notch signaling pathway. As to the kind of experiment: Notch reporter luciferase assay after DAPT treatment. Format: cell-based, human. Conditions: lysates 24 hours after DAPT. As to the method: Breast cancer cells were seeded into 24-well dishes in triplicate and allowed to attach overnight. Cells were then infected with a Notch-reporter construct Lenti-RBPJ-firefly luciferase together with a Lenti-CMV-Renilla luciferase control (SABiosciences/QIAGEN). The two lentiviral stocks were mixed at a ratio of 50 Notch reporters to 1 CMV control and a single mixture was used to infect all recipient cell lines at a MOI of 100. Following incubation for 48 hours, cell lysates were prepared and measured for Notch activity using Promega Dual Luciferase reagents and Passive Lysis Buffer. Firefly luciferase levels were normalized using corresponding Renilla luciferase levels for each cell line. To confirm that Notch pathways are activated in the index cell lines through Notch gene rearrangements, the activated NOTCH1 and NOTCH2 alleles were cloned from HCC1599, HCC2218, and HCC1187 into a pcDNA3.1 vector. These expression constructs, pcDNA3.1-1599-NOTCH1, pcDNA3.1-2218-NOTCH1, and pcDNA3.1-1187-NOTCH2 and positive control NOTCH1-NICD, were individually transfected into 293T cells along with the pGL4-RBPJ-4X reporter plasmid and pTKRenilla luciferase control plasmid. Cells were harvested for luciferase activity assays 24 hours after transfection and assayed as above.
Notch fusion alleles provide a target for therapeutic intervention. The three characterized Notch fusions represent two functional classes. The first class, exemplified by the HCC2218 and HCC1599 fusions, produces a protein similar to that produced by the ADAM17/TACE catalyzed S2 cleavage, which occurs during ligand activation of the Notch pathway. The second class, exemplified by the HCC1187 fusion, produces a protein similar to the NICD produced after cleavage at S3 by γ-secretase. […] Each of the three cell lines was treated with the γ-secretase inhibitor DAPT 31, and luciferase activity was measured in cell lysates 24 hours later. […] A panel of six breast cell lines were treated with DAPT at 0, 0.3, 1, and 3 μM, and cell proliferation was measured using a WST-1 assay over a six day time course.

For the compound `C[C@H](NC(=O)Cc1cc(F)cc(F)c1)C(=O)N[C@H](C(=O)OC(C)(C)C)c1ccccc1` [DAPT, N—[N-(3,5-difluorophenacetyl)-L-alanyl]-S-phenylglycine t-butyl ester], in data set [1] (HCC1599 xenograft in immunodeficient mice, DAPT IP, versus untreated controls), the tumor volume result was “significantly reduced”. Besides, the overall body weight entry in data set [1] (mouse, in vivo) is “No effect”. Further, in data set [2], the “Notch target gene expression” value is reported as “repressed”. Also, the “NICD levels (Western blot)” value was “nearly complete elimination” in data set [3] (HCC1599 cells after DAPT treatment) and “dramatically reduced” in data set [3] (HCC2218 cells after DAPT treatment). Besides, the cell proliferation result was “dramatic reduction in proliferation” in data set [4], “no reduction in proliferation” in data set [5], “significant reduction in proliferation” in data set [6] and “no reduction in proliferation” in data set [7]. The results for the “Notch reporter activity (luciferase)” value in data set [8] (HCC1187 stable Notch reporter line), in data set [8] (HCC1599 stable Notch reporter line) and in data set [8] (HCC2218 stable Notch reporter line) were “only slightly diminished”, “dramatic reduction” and “dramatic reduction”, respectively.
